Laboratory results from article PMC9289467, “A Novel Multifunctional 5,6-Dimethoxy-Indanone-Chalcone-Carbamate Hybrids Alleviates Cognitive Decline in Alzheimer’s Disease by Dual Inhibition of Acetylcholinesterase and Inflammation” (Frontiers in Aging Neuroscience, 2022).

How the values were obtained:
[1] = target: T1, pre-formed Aβ40-AChE fibrils complex (Homo sapiens, UniProt P22303); assay: Disaggregation of pre-formed Aβ40-AChE fibrils (ThT); format: biochemical; conditions: Aβ40 pre-aggregated with AChE for 2 days before co-incubation with AP5
T1 construct: purchased Roche (AChE); Invitrogen (Aβ40) R005282 (AChE); 03-136 (Aβ40)
T1 sequence (P22303 32-614, one chain of several): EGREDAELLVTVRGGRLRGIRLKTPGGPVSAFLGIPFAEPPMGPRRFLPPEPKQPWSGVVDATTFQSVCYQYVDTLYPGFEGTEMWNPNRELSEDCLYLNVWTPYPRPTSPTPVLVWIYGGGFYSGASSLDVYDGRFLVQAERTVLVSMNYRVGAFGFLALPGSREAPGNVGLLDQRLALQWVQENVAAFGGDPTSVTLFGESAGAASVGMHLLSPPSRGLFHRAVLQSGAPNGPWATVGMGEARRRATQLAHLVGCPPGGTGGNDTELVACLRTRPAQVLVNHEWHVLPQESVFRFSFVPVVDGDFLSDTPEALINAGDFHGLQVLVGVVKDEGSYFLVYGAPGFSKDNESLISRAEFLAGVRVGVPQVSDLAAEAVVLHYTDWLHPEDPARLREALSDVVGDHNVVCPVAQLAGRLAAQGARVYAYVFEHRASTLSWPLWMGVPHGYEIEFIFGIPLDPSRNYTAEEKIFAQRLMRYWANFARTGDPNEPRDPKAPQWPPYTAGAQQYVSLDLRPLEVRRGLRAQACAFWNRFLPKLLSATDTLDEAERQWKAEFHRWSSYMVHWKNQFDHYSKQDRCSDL
Procedure: The effects of AP5 on Aβ fibril formation and pre-formed Aβ fibrils disaggregation were determined using a previously described method of Thioflavin T (ThT, T3516, Sigma Aldrich, St. Louis, MO, United States) fluorometry ([Jan et al., 2010]).
Supplementary materials and methods … ...1 […]
Supplementary Figure 1 … .....7
Supplementary Figure 2 … .....7
Supplementary materials and methods
Prepations ofspecimen for pharmacokinetics analysis
24 h afterdosing. Brains were collected at0, 0.25, 0.5,2, 4,8 and 24 h after administration.Plasma extractions were performed by adding 90 μL methanol and 2 μL internalstandard letrozole (500 ng/mL) to a30 µL plasma sample. […]
Then 90 μL methanol and 2 μL letrozolewere added to 30 µl brainhomogenates. The samples were vortexed for 3 min and centrifuged 15 min at25,000 g.The plasma and brainhomogenate were analyzed by UPLC-TSQ/MS (Thermo Fisher Scientific, Waltham, MA, USA). […]
To study the kinetics of Aβ-AChE fibril complex formation, 10 μM Aβ was mixed with AChE (R005282, Roche, Basel, Switzerland) and different concentrations AP5 and incubated with 10 μM ThT and 50 mM glycine-NaOH (pH 8.5) at 37°C, the ThT fluorescence was continually measured for 24 h at 30 min intervals. […] Fluorescence emission at485 nm was measured on a Spectra MAX GeminiXS fluorometerat an excitation wavelength of 450 nm. […]

Aβ = assay: MOAB-2 immunofluorescence of Aβ, APP/PS1 mice; format: in vivo; conditions: cortex and hippocampus; AP5 40 mg/kg once daily 5 months
Procedure: APP/PS1 mice of ages 6 months were randomly divided into vehicle (APP/PS1, n = 10) and treatment groups (AP5, n = 10), which were intragastrically administered with AP5 (40 mg/kg) once daily for consecutive 5 months. AP5 was dissolved in distilled water containing 1% sodium carboxymethyl cellulose.
The fixed hemibrains were paraffin-embedded and sectioned in the coronal plane. The slices were deparaffinized with xylene and rehydrated by a series of gradient alcohols. Antigen retrieval through microwave boiling was performed with 10 mM sodium citrate solution at pH 6.0. The slices were cooled down to room temperature and then rinsed in PBS solution. Then the slices were incubated in 10% goat serum blocking solution for 1 h followed by primary antibodies overnight at 4°C. The next day, the slides were labeled with biotinylated or fluorescent secondary antibodies. Slices were washed three times with PBS before being mounted. Images were captured using a SpinSR10 scanner (Olympus, Tokyo, Japan). […]
Cambridge, UK) or anti-GFAP (1:100, bs-0199R, Bioss) at4 °C. After being washed with PBS, slides were treated with a biotinylated secondary antibody for 30 min and with streptavidin-peroxidase complex for another 30 min at 37°C. Immunostaining was visualized with 3,3′-diaminobenzidine (DAB, ZL1-9018, Zhongshan Jinqiao, Beijing, China ).The images were acquired using a Nikon microscope (Nikon, […]

CCN(C)C(=O)Oc1cccc(/C=C2\Cc3cc(OC)c(OC)cc3C2=O)c1 [AP5, (E)-3-((5,6-dimethoxy-1-oxo-1,3-dihydro-2H-inden-2-ylidene)-methyl)phenylethyl(methyl)carbamate]
ThT fluorescence intensity, disaggregation of pre-formed Aβ40 fibrils [1]: marked decline of ThT fluorescence intensity | area occupied by unaggregated and aggregated Aβ (MOAB-2) (Aβ): also decreased
